Drawing on paper PMC9588003, “TRPM8 contributes to sex dimorphism by promoting recovery of normal sensitivity in a mouse model of chronic migraine” (Nature Communications, 2022), this text covers EC50 for one compound.

For this experiment, the target named is human TRPM8 (hTRPM8) (Homo sapiens, UniProt Q7Z2W7). The experiment can be described thus: whole-cell patch clamp, hTRPM8-HEK293 cells; agonist dose-response. It is filed as cell-based.
Sequence of human TRPM8 (hTRPM8) (Q7Z2W7 whole entry): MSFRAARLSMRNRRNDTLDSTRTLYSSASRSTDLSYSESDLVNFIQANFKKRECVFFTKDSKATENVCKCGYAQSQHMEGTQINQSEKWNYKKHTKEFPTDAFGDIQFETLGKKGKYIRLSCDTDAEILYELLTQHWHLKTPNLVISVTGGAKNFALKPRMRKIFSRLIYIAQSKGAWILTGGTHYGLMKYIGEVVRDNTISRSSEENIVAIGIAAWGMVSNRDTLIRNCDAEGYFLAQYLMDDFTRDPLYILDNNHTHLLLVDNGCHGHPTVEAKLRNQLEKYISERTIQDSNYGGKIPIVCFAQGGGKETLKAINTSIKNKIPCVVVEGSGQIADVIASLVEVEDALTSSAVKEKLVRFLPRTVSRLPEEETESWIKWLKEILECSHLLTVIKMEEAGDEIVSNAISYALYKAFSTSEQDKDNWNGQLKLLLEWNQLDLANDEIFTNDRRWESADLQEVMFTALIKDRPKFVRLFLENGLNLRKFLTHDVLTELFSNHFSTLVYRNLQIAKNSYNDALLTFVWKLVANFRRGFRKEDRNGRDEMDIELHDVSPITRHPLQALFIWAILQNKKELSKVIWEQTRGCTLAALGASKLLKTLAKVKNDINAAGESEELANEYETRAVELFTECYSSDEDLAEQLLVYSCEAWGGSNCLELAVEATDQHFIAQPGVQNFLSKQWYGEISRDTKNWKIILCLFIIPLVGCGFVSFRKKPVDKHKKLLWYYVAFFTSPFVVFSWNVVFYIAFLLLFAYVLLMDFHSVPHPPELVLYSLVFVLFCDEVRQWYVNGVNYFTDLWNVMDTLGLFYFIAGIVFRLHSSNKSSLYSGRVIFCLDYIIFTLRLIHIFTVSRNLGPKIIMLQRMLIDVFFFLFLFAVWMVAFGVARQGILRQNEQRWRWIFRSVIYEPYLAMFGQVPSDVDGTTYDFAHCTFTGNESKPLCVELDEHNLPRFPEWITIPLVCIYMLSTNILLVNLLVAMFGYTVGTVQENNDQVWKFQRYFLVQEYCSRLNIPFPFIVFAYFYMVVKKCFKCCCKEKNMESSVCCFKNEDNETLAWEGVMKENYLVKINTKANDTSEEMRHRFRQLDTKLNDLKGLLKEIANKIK

For orientation: EC50 means the concentration at which the effect is half-maximal. Compound `COc1ccc(NC(=O)[C@@H]2C[C@H](C)CC[C@H]2C(C)C)cc1` [WS12, (1R,2S,5R)−2-Isopropyl-N-(4-methoxyphenyl)−5-methylcyclohexanecarboxamide] gave an EC50 of 500 nM.
